The text below walks through data of US9420787B2, “Method for controlling noxious organisms” (SUMITOMO CHEMICAL COMPANY, LIMITED, priority 2012, dated 2016).

Format in all cases: in vivo
The subject of test [1] is Ivyleaf morningglory. As to the kind of experiment: Herbicidal effect in pots sown with ethaboxam-treated cotton seeds, PPO inhibitor sprayed on soil (Example 3). Conditions: cotton pot, day 7 after sowing, scale 0 to 100. On the procedure:
In a plastic cup of 100 mm in inside diameter and 40 mm in height, 5.7 mg of an ethaboxam suspension (a suspension containing 34.6% of ethaboxam, manufactured by Valent USA Corp.) and 40 cotton seeds were placed. The plastic cup was shaken by the hand so that the ethaboxam suspension was attached to the cotton seeds. The weight of 40 cotton seeds was 6.6 g, and the amount of ethaboxam by the above treatment was calculated as 30 g per 100 kg of the cotton seeds. In the same manner, 56.7 mg of the ethaboxam suspension was attached to 40 cotton seeds. The weight of 40 cotton seeds was 6.55 g, and the amount of ethaboxam by the above treatment was calculated as 300 g per 100 kg of the cotton seeds. A soil was packed in a plastic pot of 120 mm in inside diameter×80 mm in height. The above cotton seeds were sown in this pot at a rate of two seeds per pot, and the seeds of ivyleaf morningglory were sown at a rate of four seeds per pot. On the day of sowing the cottonseeds and after sowing the cotton seeds, an aqueous diluted solution (113 mg of active ingredient/L or 225 mg of active ingredient/L) of a flumioxazin granular wettable powder (a granular wettable powder containing 51% of flumioxazin, trade name: Valor SX, manufactured by Valent USA), an aqueous diluted solution (226 mg of active ingredient/L or 1130 mg of active ingredient/L) of a sulfentrazone granular wettable powder (a granular wettable powder containing 75% of sulfentrazone, trade name: Cover, manufactured by DuPont), or an aqueous diluted solution (113 mg/L or 226 mg/L) of saflufenacil was uniformly sprayed on the soil surface with a sprayer so as to apply the amount described in Tables 7 to 9. […] On day 7 after sowing the seeds of cotton and ivyleaf morningglory, the herbicidal effect was investigated.

Test [2] deals with Ivyleaf morningglory. As to the kind of experiment: Herbicidal effect in pots sown with ethaboxam-treated corn seeds, PPO inhibitor sprayed on soil (Example 2). Conditions: corn pot, day 7 after sowing, scale 0 to 100. The protocol: In a plastic cup of 100 mm in inside diameter and 40 mm in height, 13.4 mg of an ethaboxam suspension (a suspension containing 34. 6% of ethaboxam, manufactured by Valent USA Corp.) and 40 corn seeds were placed. The plastic cup was shaken by the hand so that the ethaboxam suspension was attached to the corn seeds. The weight of 40 corn seeds was 15.5 g, and the amount of ethaboxam by the above treatment was calculated as 30 g per 100 kg of the corn seeds. In the same manner, 138.7 mg of the ethaboxam suspension was attached to 40 corn seeds. The weight of 40 corn seeds was 16.0 g, and the amount of ethaboxam by the above treatment was calculated as 300 g per 100 kg of the corn seeds. A soil was packed in a plastic pot of 120 mm in inside diameter×80 mm in height. The above treated corn seeds were sown in this pot at a rate of two seeds per pot, and the seeds of ivyleaf morningglory were sown at a rate of four seeds per pot. On the day of sowing the corn seeds and after sowing the corn seeds, an aqueous diluted solution (113 mg of active ingredient/L or 225 mg of active ingredient/L) of a flumioxazin granular wettable powder (a granular wettable powder containing 51% of flumioxazin, trade name: Valor SX, manufactured by Valent USA), an aqueous diluted solution (226 mg of active ingredient/L or 1130 mg of active ingredient/L) of a sulfentrazone granular wettable powder (a granular wettable powder containing 75% of sulfentrazone, trade name: Cover, manufactured by DuPont), or an aqueous diluted solution (113 mg/L or 226 mg/L) of saflufenacil was uniformly sprayed on the soil surface with a sprayer so as to apply the amount described in Tables 4 to 6. […] On day 7 after sowing the seeds of corn and ivyleaf morningglory, the herbicidal effect was investigated.

The subject of test [3] is Ivyleaf morningglory. Briefly: Herbicidal effect in pots sown with ethaboxam-treated soybean seeds, PPO inhibitor sprayed on soil (Example 1). Particulars: soybean pot, day 7 after sowing, scale 0 to 100. The protocol:
In a plastic cup of 100 mm in inside diameter and 40 mm in height, 10.5 mg of an ethaboxam suspension (a suspension containing 34.6% of ethaboxam, manufactured by Valent USA Corp.) and 40 soybean seeds were placed. The plastic cup was shaken by the hand so that the ethaboxam suspension was attached to the soybean seeds. The weight of 40 soybean seeds was 12.1 g, and the amount of ethaboxam by the above treatment was calculated as 30 g per 100 kg of the soybean seeds. In the same manner, 104.9 mg of the ethaboxam suspension was attached to 40 soybean seeds. The weight of 40 soybean seeds was 12.1 g, and the amount of ethaboxam by the above treatment was calculated as 300 g per 100 kg of the soybean seeds. A soil was packed in a plastic pot of 120 mm in inside diameter×80 mm in height. The above treated soybean seeds were sown in this pot at a rate of two seeds per pot, and the seeds of ivyleaf morningglory were sown at a rate of four seeds per pot. On the day of sowing the soybean seeds and after sowing the soybean seeds, an aqueous diluted solution (113 mg of active ingredient/L or 225 mg of active ingredient/L) of a flumioxazin granular wettable powder (a granular wettable powder containing 51% of flumioxazin, trade name: Valor SX, manufactured by Valent USA), an aqueous diluted solution (226 mg of active ingredient/L or 1130 mg of active ingredient/L) of a sulfentrazone granular wettable powder (a granular wettable powder containing 75% of sulfentrazone, trade name: Cover, manufactured by DuPont), or an aqueous diluted solution (113 mg/L or 226 mg/L) of saflufenacil was uniformly sprayed on the soil surface with a sprayer so as to apply the amount described in Tables 1 to 3. […] On day 7 after sowing the seeds of soybean and ivyleaf morningglory, the herbicidal effect was investigated.

Setting [4] is: ethaboxam 30 g/100 kg of seeds, no PPO inhibitor.
Where [5] appears, read: ethaboxam 300 g/100 kg of seeds, no PPO inhibitor.
[6] abbreviates: no ethaboxam, flumioxazin 100 g/ha.
Where [7] appears, read: no ethaboxam, saflufenacil 100 g/ha.
Where [8] appears, read: no ethaboxam, sulfentrazone 500 g/ha.

As for `CCNc1nc(CC)c(C(=O)NC(C#N)c2cccs2)s1` (centres unmarked) [ethaboxam], the “Herbicidal effect Ivyleaf morningglory” value in test [1] (setting [4]), in test [1] (setting [5]), in test [2] (setting [4]), in test [2] (setting [5]), in test [3] (setting [4]) and in test [3] (setting [5]) was 0 each time.
Consider `C#CCN1C(=O)COc2cc(F)c(N3C(=O)C4=C(CCCC4)C3=O)cc21` [flumioxazin], for which the “Herbicidal effect Ivyleaf morningglory” value in test [1] (setting [6]) and in test [2] (setting [6]) was 30 each time.
As to `CC(C)N(C)S(=O)(=O)NC(=O)c1cc(-n2c(=O)cc(C(F)(F)F)n(C)c2=O)c(F)cc1Cl` [saflufenacil], the “Herbicidal effect Ivyleaf morningglory” value in test [1] (no ethaboxam, saflufenacil 50 g/ha) turned out to be 20; in test [1] (setting [7]) it was 70; in test [3] (setting [7]) it was 50.
On to `Cc1nn(-c2cc(NS(C)(=O)=O)c(Cl)cc2Cl)c(=O)n1C(F)F` [sulfentrazone], for which the “Herbicidal effect Ivyleaf morningglory” value in test [1] (setting [8]) worked out at 40; in test [2] (no ethaboxam, sulfentrazone 100 g/ha), 30; in test [2] (setting [8]), 70.
